Laboratory results reported in PMC3163001 (Organic letters, 2011).

Target: SylD-CA (Pseudomonas syringae, UniProt Q83Y48)
Test: ATP-PPi radioactivity exchange assay
Assay type: biochemical
Details: reversible adenylation

## NCC/C=C/[C@H](N)C(=O)O [L-3,4-dehydrolysine]
Preferred substrate of the A domain
  ATP-PPi radioactivity exchange assay: As expected L-3,4-dhl was preferentially reversibly adenylated

## NCCCC[C@H](N)C(=O)O [L-lysine]
  ATP-PPi radioactivity exchange assay: L-lysine was reversibly adenylated at a much slower rate
